We go through one compound from paper PMC7542351, “Construction of a new T7 promoter compatible Escherichia coli Nissle 1917 strain for recombinant production of heme-dependent proteins” (Microbial Cell Factories, 2020).

This assay deals with T1, Cph1 (Synechocystis sp. PCC 6803, UniProt Q55168).
T1 construct: His6 tag; ~80 kDa; pET-cph1; co-produced with HO1 and PcyA in E. coli; cell-free lysate
Kind of assay: red/far-red induced difference spectroscopy of holo-phytochrome. It counts as biochemical. Conditions: cell-free lysate; pH 8.0, 25 °C; 630 nm / 730 nm light; PCB made in vivo by co-expressed HO1 and PcyA, and 40 µM PCB added; covalent.

T1 sequence (Q55168 whole entry): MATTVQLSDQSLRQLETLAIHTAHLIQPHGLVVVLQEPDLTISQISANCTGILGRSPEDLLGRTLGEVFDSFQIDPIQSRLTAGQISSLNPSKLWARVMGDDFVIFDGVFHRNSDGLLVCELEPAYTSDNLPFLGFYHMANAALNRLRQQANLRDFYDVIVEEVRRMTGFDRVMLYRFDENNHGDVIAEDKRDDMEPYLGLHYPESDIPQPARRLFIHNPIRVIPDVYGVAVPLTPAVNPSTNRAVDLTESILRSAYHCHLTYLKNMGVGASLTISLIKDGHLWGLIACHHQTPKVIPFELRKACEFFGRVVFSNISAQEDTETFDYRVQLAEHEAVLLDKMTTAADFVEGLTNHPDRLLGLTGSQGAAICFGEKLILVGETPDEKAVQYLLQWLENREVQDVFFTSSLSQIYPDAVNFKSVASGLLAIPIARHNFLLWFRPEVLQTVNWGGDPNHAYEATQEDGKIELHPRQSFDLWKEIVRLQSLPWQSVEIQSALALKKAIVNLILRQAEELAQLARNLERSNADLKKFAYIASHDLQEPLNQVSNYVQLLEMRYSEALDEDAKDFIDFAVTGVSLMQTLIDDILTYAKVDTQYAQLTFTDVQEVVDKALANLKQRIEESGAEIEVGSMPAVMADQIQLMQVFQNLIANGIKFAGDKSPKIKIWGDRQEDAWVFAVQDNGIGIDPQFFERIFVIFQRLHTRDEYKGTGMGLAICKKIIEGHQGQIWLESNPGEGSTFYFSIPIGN

As for `CC=C1C(=Cc2[nH]c(C=C3N=C(C=C4NC(=O)C(CC)=C4C)C(C)=C3CCC(=O)O)c(CCC(=O)O)c2C)NC(=O)C1C` (stereo not shown) [phycocyanobilin], the “red/far-red induced difference spectroscopy of holo-phytochrome” value is “Comparison of difference spectra before and after incubation with PCB indicated a higher saturation”.
